One data set concerns Escherichia coli. Briefly: MIC test (growth inhibition, 96 well plates, OD). The class given is cell-based. To be noted: read-out: Minimum Inhibitory Concentration (MIC). On the procedure:
(§1) The MIC test is a test on growth inhibition. Estimation of Minimum Inhibitory Concentration (MIC) is executed in 96 well plates. Through the comparison of bacterial growth with positive and negative controls via optical density (OD), different concentrations of given test substances are evaluated.
(§2) Bacteria are cultivated under adjusted conditions based on information of the German Collection of Microorganisms and Cell Cultures (DSMZ) and stored in 50% Glycerol prior to use. Afterwards, the following method was applied: Adding growth medium (according to microorganism) to each well of the microplate. Adding the test-substances in different concentrations, positive controls (water controls only with medium) and negative controls (benchmarks according to organism). Adding the microorganism in a concentration of 10^6 CFU/ml (CFU=colony forming units). Incubation of the microplates at appropriate conditions.
(§3) According to resulting growth, substance concentrations are labelled either as inhibiting or not and MIC is defined as the lowest concentration where a complete growth inhibition is visible. Experiments at concentration limits (highest concentration labelled as growth and lowest concentration labelled as inhibiting) are performed at least twice.

For the next data set, the system named is Corynebacterium jeikeium. Briefly: MIC test (growth inhibition, 96 well plates, OD). Conditions: read-out: Minimum Inhibitory Concentration (MIC). The class given is cell-based. On the procedure: as §1, §2, §3
A further data set deals with Candida albicans. The experiment in a line: MIC test (growth inhibition, 96 well plates, OD). The data set is classed as cell-based. To be noted: read-out: Minimum Inhibitory Concentration (MIC). On the procedure: as §1, §2, §3
The test system of another data set is Staphylococcus hominis. The experiment in a line: MIC test (growth inhibition, 96 well plates, OD). To be noted: read-out: Minimum Inhibitory Concentration (MIC). The data set is classed as cell-based. On the procedure: as §1, §2, §3
The subject of a further data set is Staphylococcus aureus. Briefly: MIC test (growth inhibition, 96 well plates, OD). The data set is classed as cell-based. To be noted: read-out: Minimum Inhibitory Concentration (MIC). On the procedure:
as §1, §2, §3

The test system of the next data set is Propionibacterium acnes. Briefly: MIC test (growth inhibition, 96 well plates, OD). The class given is cell-based. To be noted: Cutibacterium acnes; read-out: Minimum Inhibitory Concentration (MIC). On the procedure:
as §1, §2, §3

A short description of data set [1]: Sensory evaluation on the backside of the hand (spreading, fatty/greasy skin feel, absorption), untrained panellists. Conditions: for Absorption/remaining residue with alkanediol: scale 1 to 5. On the procedure: For evaluating the sensory behaviour, liquid lipophilic components specified in the following table were blended with 1,2-heptanediol or 2,3-heptanediol or a mixture of 1,2-heptanediol and 2,3-heptanediol or 1,2-octanediol or 2,3-octanediol or a mixture of 1,2-octanediol and 2,3-octanediol (formulation) in a ratio of 85:15 and assessed by untrained panellists in comparison to the liquid lipophilic component without addition of the specified alkanediols (placebo).
The test procedure was carried as follows: For evaluating the sensory behaviour of 1,2-alkanediols and/or 2,3-alkanediols in combination with different liquid lipophilic components, oil components specified in the following table were blended with a 1,2-alkanediol or a 2,3-alkanediol or a mixture including a 1,2-alkanediol and a 2,3-alkanediol in a ratio as specified in Table 53 and assessed by untrained panellists in comparison to the liquid lipophilic component without addition of the 1,2-alkanediol or 2,3-alkanediol or the mixture including a 1,2-alkanediol and 2,3-alkanediol (placebo).
Test Procedure: • Hands were pre-washed with liquid soap by following a defined procedure; 30 μl of corresponding sample was applied on the backside of each hand (randomized); • After 30 s the spreading behaviour of the respective formulation on skin was evaluated versus the respective oil component without 1,2-heptanediol on a scale from 1 to 5 (1=low spreading; 5=high spreading); • The samples were distributed with the fingertips of middle and forefinger with 2×5 cycles; • After 2 minutes, the fatty/greasy skin feel was evaluated on a scale from 1 to 5 (1=low fatty/greasy skin feel; 5=high fatty/greasy skin feel); • Furthermore the applicants were asked to assess the absorption, i.e. the impression of amount of remaining residue on the skin on a scale from 1 to 5 (1=low absorption; 5=high absorption).

In a further data set the test system is Aspergillus brasiliensis. The experiment in a line: MIC and Kull synergy index of 1,2-/2,3-alkanediol mixtures. Conditions: single 1,2-alkanediol, read-out: MIC Component A. The class given is cell-based.
For data set [2], the system named is Pseudomonas aeruginosa (PA). Briefly: Preservation efficacy test (PET), European Pharmacopoeia 5.1.3. The data set is classed as cell-based. On the procedure:
(§4) The preservation efficacy test (PET) was performed in accordance with European Pharmacopoeia § 5.1.3: The test is a reference European Pharmacopoeia method, that is to be used to evaluate the preservation system of a cosmetic or pharmaceutical preparation. The test consists of challenging the preparation under test, with prescribed inoculums of suitable microorganisms. The preservation porperties of the preparation are adequate if, in the conditions of the test, there is a significant fall or no increase, as appropriate, in the number of microorganisms in the inoculated preparations after the time prescribed.
(§5) The test microorganisms which were used, are the following:
(§6) Pseudomonas aeruginosa (PA) (bacterium); Staphylococcus aureus (SA) (bacterium); Escherichia coli (EC) (bacterium); Candida albicans (CA) (yeast); and Aspergillus brasiliensis (AB) (fungus).

A further data set relates to Candida albicans (CA). The data set is described as above. The class given is cell-based. On the procedure:
as §4, §5, §6

In a further data set the test system is Escherichia coli (EC). The data set is described as above. The class given is cell-based. On the procedure: as §4, §5, §6
For data set [3], the system named is Staphylococcus aureus (SA). Described as above. The data set is classed as cell-based. On the procedure:
as §4, §5, §6

Data set [4] deals with Aspergillus brasiliensis (AB). The description is as above. The class given is cell-based. On the procedure:
as §4, §5, §6

For the next data set, the system named is human sebaceous glands. The experiment in a line: Sebum production of micro-dissected, cultured human sebaceous glands (lipids/proteins after six days). Details: sebum reduction: concentration or dose not given beside the values. Conditions: compared to untreated control; six days; single donor (FIG. 4). The data set is classed as cell-based. On the procedure:
Additional tests were performed with human sebaceous glands in order to verify the modulatory activity of different 1,2-alkanediols and 2,3-alkanediols on sebum secretion. Several microbial species on the skin are lipid dependent and feed on the human sebum (e.g. Corynebacterium, Propionibacterium). Accordingly, sebum reduction can indirectly support the reduction of microorganisms on the skin and in this way also indirectly support e.g. dandruff or acne reduction.
For these experiments sebaceous glands had been micro-dissected and cultured with medium. The medium without any supplement served as untreated control. Medium with 5 μM Capsaicin served as positive control. Additionally, culture medium was supplemented with different concentrations of alkanediols. After six days the sebaceous glands were collected and lipids and proteins quantified. The total lipid amount being representative of sebum production was obtained by normalizing the quantified lipids upon the quantified proteins (i.e. mg of lipids/mg of proteins).

Converted amounts (≈) assume the structure as drawn.

Consider `CCCCCCCCC(O)CO` (stereo not drawn) [1,2-Decanediol, 1,2-decanediol, reference compound], for which the MIC in the data set with Escherichia coli is 250 µg/mL (≈ 1430 µM); in the data set on Corynebacterium jeikeium it was 2500 µg/mL (≈ 14300 µM); in the data set on Candida albicans it was 250 µg/mL (≈ 1430 µM); in the data set on Staphylococcus hominis, 500 µg/mL (≈ 2870 µM); in the data set on Staphylococcus aureus, 250 µg/mL (≈ 1430 µM); in the data set on Propionibacterium acnes it was 500 µg/mL (≈ 2870 µM).

Consider `CCCCCCC(O)CO` (stereo not drawn) [1,2-octanediol], for which the “Absorption/remaining residue Delta” value in [1] (blend with Argan Oil vs without) is listed as 1.2; in data set [1] (blend with Avocado Oil vs without), 1.2; in data set [1] (blend with Cacao butter vs without), 0.6; in data set [1] (blend with Castor Oil vs without) it was 1; in data set [1] (blend with Coconut Oil vs without), 0.8; in data set [1] (blend with Grapeseed Oil vs without), 1. For the same compound, the “Absorption/remaining residue Delta” value in data set [1] (blend with Helianthus Annuus (Sunflower) Seed Oil vs without) stood at 1.8; in data set [1] (blend with Octocrylene (Neo Heliopan 303), vs without), 0.5; in [1] (blend with Olive Oil vs without), 1.4. In addition, the “Absorption/remaining residue with alkanediol” value in [1] (blend with Argan Oil) amounted to 2.6; in [1] (blend with Avocado Oil) it was 2.6; in data set [1] (blend with Cacao butter) it was 3; in data set [1] (blend with Castor Oil) it was 3.4; in data set [1] (blend with Coconut Oil), 3; in [1] (blend with Grapeseed Oil), 1.6. Besides, the “Absorption/remaining residue with alkanediol” value in [1] (blend with Helianthus Annuus (Sunflower) Seed Oil) worked out at 2; in [1] (blend with Octocrylene (Neo Heliopan 303)), 3.5; in data set [1] (blend with Olive Oil), 2.6. Further, the MIC with Escherichia coli came to 5000 µg/mL (≈ 34200 µM); in the data set on Corynebacterium jeikeium, 5000 µg/mL (≈ 34200 µM); in the data set on Candida albicans it was 2500 µg/mL (≈ 17100 µM); in the data set on Staphylococcus hominis it was 5000 µg/mL (≈ 34200 µM); in the data set on Staphylococcus aureus, 2500 µg/mL (≈ 17100 µM); in the data set on Aspergillus brasiliensis it was 2500 µg/mL. Moreover, the “number of microorganisms after 2 days” value is listed as 1,300,000 in [2] (0.1% in wet wipes solution); 1 in data set [2] (0.2% in o/w emulsion); 4,700,000 in the data set on Candida albicans (CA) (0.1% in wet wipes solution); 950,000 in the data set with Candida albicans (CA) (0.2% in o/w emulsion); 1,300,000 with Escherichia coli (EC) (0.1% in wet wipes solution); 1 in the data set on Escherichia coli (EC) (0.2% in o/w emulsion). In addition, the “number of microorganisms after 2 days” value in [3] (0.1% in wet wipes solution) is given as 425; in data set [3] (0.2% in o/w emulsion), 1; in data set [4] (0.1% in wet wipes solution), 22,000,000; in data set [4] (0.2% in o/w emulsion), 2,400,000. In addition, the “number of microorganisms after 7 days” value is reported as 2,500,000 in data set [2] (0.1% in wet wipes solution); 1 in data set [2] (0.2% in o/w emulsion); 3,900,000 in the data set with Candida albicans (CA) (0.1% in wet wipes solution); 15,000 in the data set on Candida albicans (CA) (0.2% in o/w emulsion); 3,500,000 with Escherichia coli (EC) (0.1% in wet wipes solution); 1 in the data set with Escherichia coli (EC) (0.2% in o/w emulsion). The “number of microorganisms after 7 days” value is recorded as 50 in data set [3] (0.1% in wet wipes solution), 1 in data set [3] (0.2% in o/w emulsion), 8,500,000 in data set [4] (0.1% in wet wipes solution) and 2,700,000 in data set [4] (0.2% in o/w emulsion). Besides, the “number of microorganisms after 14 days” value in data set [2] (0.1% in wet wipes solution) was 750,000; in data set [2] (0.2% in o/w emulsion) it was 1; with Candida albicans (CA) (0.1% in wet wipes solution), 5,800,000; with Candida albicans (CA) (0.2% in o/w emulsion) it was 36; in the data set with Escherichia coli (EC) (0.1% in wet wipes solution), 2,100,000; in the data set on Escherichia coli (EC) (0.2% in o/w emulsion) it was 1. For the same compound, the “number of microorganisms after 14 days” value in [3] (0.1% in wet wipes solution) is given as 50; in data set [3] (0.2% in o/w emulsion), 1; in data set [4] (0.1% in wet wipes solution) it was 11,000,000; in data set [4] (0.2% in o/w emulsion), 2,100,000. Also, the “number of microorganisms after 28 days” value in data set [2] (0.1% in wet wipes solution) is recorded as 350,000; in [2] (0.2% in o/w emulsion) it was 1; with Candida albicans (CA) (0.1% in wet wipes solution) it was 9,300,000; in the data set with Candida albicans (CA) (0.2% in o/w emulsion), 1; with Escherichia coli (EC) (0.1% in wet wipes solution), 2,300; in the data set on Escherichia coli (EC) (0.2% in o/w emulsion), 1. Besides, the “number of microorganisms after 28 days” value is 50 in [3] (0.1% in wet wipes solution), 1 in [3] (0.2% in o/w emulsion), 12,000,000 in [4] (0.1% in wet wipes solution) and 1,200,000 in [4] (0.2% in o/w emulsion).

The compound `CCCCCCCCCC(O)CO` (stereo not drawn) [1,2-undecanediol] returned a sebum reduction in the data set with human sebaceous glands of 44%.

On to `CCCCCCCCC(O)C(C)O` (stereo not drawn) [2,3-Undecanediol, 2,3-undecanediol], for which the sebum reduction entry with human sebaceous glands is given as “more than 50%”. Also, the MIC amounted to 500 µg/mL (≈ 2660 µM) in the data set with Escherichia coli; 250 µg/mL (≈ 1330 µM) in the data set on Corynebacterium jeikeium; 250 µg/mL (≈ 1330 µM) in the data set on Candida albicans; 250 µg/mL (≈ 1330 µM) in the data set on Staphylococcus hominis; 250 µg/mL (≈ 1330 µM) in the data set on Staphylococcus aureus; 250 µg/mL (≈ 1330 µM) in the data set on Propionibacterium acnes.

The values are drawn from patent US20230248626A1, “Compositions Comprising (Bio)-Alkanediols” (Symrise AG, priority 0001, published 2023).
